The compounds below were run on HCV replicon RNA replication in human Huh7 hepatoma cells (assay: HCV replicon assay (activity levels from either or both of HCV replicon assay 1, Huh7/Clone A RT-qPCR, and assay 2, Huh7 ET luc-ubi-neo/ET)). Details: Hepatitis C virus, Huh-7, either or both HCV replicon assays: Huh7/Clone A, 48 hours, 72 hours, Luc activity or RT-PCR, read-out: inhibit HCV replication at IC50 levels or estimated IC50 levels.
Format: cell-based, Hepatitis C virus (HCV)
Method in brief: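 Huh7/Clone A subgenomic replicon cells treated 48 h at 37° C. with 7 serial dilutions in triplicate (0.5% DMSO final). Replicon RNA measured by TaqMan RT-qPCR on the neo gene, normalized to RiboGreen total RNA; untreated cells set as 100% for IC50.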

`CC(C)(c1ccc(F)cc1)c1nc(-c2cn(Cc3ccc(C(F)(F)F)cc3)c3cc(N4CCSCC4)c(F)cc3c2=O)no1` [Compound 132, 6-fluoro-3-(5-(2-(4-fluorophenyl)propan-2-yl)-1,2,4-oxadiazol-3-yl)-7-thiomorpholino-1-(4-(trifluoromethyl)benzyl)quinolin-4(1H)-one] and `C[C@@H]1CN(c2cc3c(cc2F)c(=O)c(-c2noc(C(C)(C)c4ccc(F)cc4)n2)cn3Cc2ccc(C(F)(F)F)cc2)C[C@H](C)N1` [Compound 133, 7-((3S,5R)-3,5-dimethylpiperazin-1-yl)-6-fluoro-3-(5-(2-(4-fluorophenyl)propan-2-yl)-1,2,4-oxadiazol-3-yl)-1-(4-(trifluoromethyl)benzyl)quinolin-4(1H)-one] cannot be ordered by IC50: < 0.5 µM for the first, < 0.5 µM for the second.

`CC1CN(c2cc3c(cc2F)c(=O)c(-c2noc(C(C)(C)c4ccccc4)n2)cn3Cc2ccc(C(F)(F)F)cc2)CC(C)O1` (centres unmarked) [Compound 138, 7-(2,6-dimethylmorpholino)-6-fluoro-3-(5-(2-phenylpropan-2-yl)-1,2,4-oxadiazol-3-yl)-1-(4-(trifluoromethyl)benzyl)quinolin-4(1H)-one] and `CC(C)(c1ccccc1)c1nc(-c2cn(Cc3ccc(C(F)(F)F)cc3)c3cc(N4CCOCC4)c(F)cc3c2=O)no1` [Compound 146, 6-fluoro-7-morpholino-3-(5-(2-phenylpropan-2-yl)-1,2,4-oxadiazol-3-yl)-1-(4-(trifluoromethyl)benzyl)quinolin-4(1H)-one] cannot be ordered by IC50: < 2 µM for the first, < 0.5 µM for the second.

`C[C@@H](c1ccccc1)n1cc(-c2noc(C(C)(C)c3ccccc3)n2)c(=O)c2cc(F)c(N3CCOCC3)cc21` [Compound 143, (S)-6-fluoro-7-morpholino-1-(1-phenylethyl)-3-(5-(2-phenylpropan-2-yl)-1,2,4-oxadiazol-3-yl)quinolin-4(1H)-one] and `C[C@H](c1ccccc1)n1cc(-c2noc(C(C)(C)c3ccccc3)n2)c(=O)c2cc(F)c(N3CCOCC3)cc21` [Compound 145, (R)-6-fluoro-7-morpholino-1-(1-phenylethyl)-3-(5-(2-phenylpropan-2-yl)-1,2,4-oxadiazol-3-yl)quinolin-4(1H)-one] cannot be ordered by IC50: > 10 µM for the first, > 10 µM for the second.

Compared with `CC(C)(c1ccccc1)c1nc(-c2cn(C(C)(C)c3ccccc3)c3cc(N4CCOCC4)c(F)cc3c2=O)no1` [Compound 144, 6-fluoro-7-morpholino-1-(2-phenylpropan-2-yl)-3-(5-(2-phenylpropan-2-yl)-1,2,4-oxadiazol-3-yl)quinolin-4(1H)-one], `CC(C)(c1ccccc1)c1nnc(-c2cn(Cc3ccc(C(F)(F)F)cc3)c3cc(N4CCOCC4)c(F)cc3c2=O)o1` [Compound 167, 6-fluoro-7-morpholino-3-(5-(2-phenylpropan-2-yl)-1,3,4-oxadiazol-2-yl)-1-(4-(trifluoromethyl)benzyl)quinolin-4(1H)-one] is lower in IC50: > 10 µM for the first, < 2 µM for the second. The second is the more potent here.

First: CC(C)(c1ccc(F)cc1)c1nc(-c2cn(Cc3ccc(F)cc3)c3cc(N4CCS(=O)(=O)CC4)c(F)cc3c2=O)no1 [Compound 151, 7-(1,1-dioxo-thiomorpholine)-6-fluoro-3-(5-(2-(4-fluorophenyl)propan-2-yl)-1,2,4-oxadiazol-3-yl)-1-(4-(fluoro)benzyl)quinolin-4(1H)-one]
Second: CC(C)(c1ccc(F)cc1)c1nc(-c2cn(Cc3ccc(F)cc3)c3cc(F)c(F)cc3c2=O)no1 [Compound 155, 6,7-difluoro-1-(4-fluorobenzyl)-3-(5-(2-(4-fluorophenyl)propan-2-yl)-1,2,4-oxadiazol-3-yl)quinolin-4(1H)-one]
The IC50 of the first is lower: < 10 µM for the first, > 10 µM for the second. The first is the more potent here.

`CN(C)c1cc2c(cc1F)c(=O)c(-c1noc(C(C)(C)c3ccccc3)n1)cn2Cc1ccc(C(F)(F)F)cc1` [Compound 152, 7-(dimethylamino)-6-fluoro-3-(5-(2-phenylpropan-2-yl)-1,2,4-oxadiazol-3-yl)-1-(4-(trifluoromethyl)benzyl)quinolin-4(1H)-one] and `CN(C)c1cc2c(cc1F)c(=O)c(-c1noc(C(C)(C)c3ccccc3)n1)cn2Cc1ccc(F)cc1` [Compound 154, 7-(dimethylamino)-6-fluoro-1-(4-fluorobenzyl)-3-(5-(2-phenylpropan-2-yl)-1,2,4-oxadiazol-3-yl)quinolin-4(1H)-one] cannot be ordered by IC50: < 0.5 µM for the first, < 2 µM for the second.

Compared with `CN(C)c1cc2c(cc1F)c(=O)c(-c1noc(C(C)(C)c3ccc(F)cc3)n1)cn2Cc1ccc(C(F)(F)F)cc1` [Compound 153, 7-(dimethylamino)-6-fluoro-3-(5-(2-(4-fluorophenyl)propan-2-yl)-1,2,4-oxadiazol-3-yl)-1-(4-(trifluoromethyl)benzyl)quinolin-4(1H)-one], `CC(C)(c1ccc(F)cc1)c1noc(-c2cn(Cc3ccc(C(F)(F)F)cc3)c3cc(N4CCOCC4)c(F)cc3c2=O)n1` [Compound 173, 6-fluoro-3-(3-(2-(4-fluorophenyl)propan-2-yl)-1,2,4-oxadiazol-5-yl)-7-morpholino-1-(4-(trifluoromethyl)benzyl)quinolin-4(1H)-one] is higher in IC50: < 2 µM for the first, > 10 µM for the second.

First: CC(C)(c1ccc(F)cc1)c1nc(-c2cn(Cc3ccc(F)cc3)c3ccccc3c2=O)no1 [Compound 156, 1-(4-fluorobenzyl)-3-(5-(2-(4-fluorophenyl)propan-2-yl)-1,2,4-oxadiazol-3-yl)quinolin-4(1H)-one]
Second: CC(C)(c1ccc(F)cc1)c1nnc(-c2cn(Cc3ccc(C(F)(F)F)cc3)c3cc(N4CCOCC4)c(F)cc3c2=O)o1 [Compound 161, 6-fluoro-3-(5-(2-(4-fluorophenyl)propan-2-yl)-1,3,4-oxadiazol-2-yl)-7-morpholino-1-(4-(trifluoromethyl)benzyl)quinolin-4(1H)-one]
The IC50 of the first is higher: > 10 µM for the first, < 2 µM for the second. The second is the more potent here.

`COc1cc2c(=O)c(-c3nnc(Cc4ccc(Cl)cc4)o3)cn(Cc3ccc(Cl)cc3)c2cc1OC` [Compound 162, 1-(4-chloro-benzyl)-3-[5-(4-chloro-benzyl)-[1,3,4]oxadiazol-2-yl]-6,7-dimethoxy-1H-quinolin-4-one] and `COc1cc2c(=O)c(-c3nc(Cc4ccccc4)no3)cn(Cc3ccc(Cl)cc3)c2cc1OC` [Compound 169, 3-(3-benzyl-[1,2,4]oxadiazol-5-yl)-1-(4-chloro-benzyl)-6,7-dimethoxy-1H-quinolin-4-one] cannot be ordered by IC50: > 10 µM for the first, > 10 µM for the second.

`COc1cc2c(=O)c(-c3nnc(Cc4ccc(Cl)cc4)o3)cn(CC3CCCCC3)c2cc1OC` [Compound 163, 3-[5-(4-chloro-benzyl)-[1,3,4]oxadiazol-2-yl]-1-cyclohexylmethyl-6,7-dimethoxy-1H-quinolin-4-one] and `COc1cc2c(=O)c(-c3nc(Cc4ccccc4)no3)cn(CC3CCCCC3)c2cc1OC` [Compound 170, 3-(3-benzyl-[1,2,4]oxadiazol-5-yl)-1-cyclohexylmethyl-6,7-dimethoxy-1H-quinolin-4-one] cannot be ordered by IC50: > 10 µM for the first, > 10 µM for the second.

`CN1CCN(c2cc3c(cc2F)c(=O)c(-c2nnc(Cc4ccccc4)o2)cn3Cc2ccc(Cl)cc2)CC1` [Compound 164, 3-(5-benzyl-[1,3,4]oxadiazol-2-yl)-1-(4-chloro-benzyl)-6-fluoro-7-(4-methyl-piperazin-1-yl)-1H-quinolin-4-one] and `CN1CCN(c2cc3c(cc2F)c(=O)c(-c2nnc(Cc4ccccc4)o2)cn3Cc2ccc(C(F)(F)F)cc2F)CC1` [Compound 165, 3-(5-benzyl-[1,3,4]oxadiazol-2-yl)-1-(4-(2-fluoro-4-trifluormethyl)-benzyl)-6-fluoro-7-(4-methyl-piperazin-1-yl)-1H-quinolin-4-one] cannot be ordered by IC50: < 10 µM for the first, < 2 µM for the second.

`CC(C)(c1ccccc1)c1noc(-c2cn(Cc3ccc(C(F)(F)F)cc3)c3cc(N4CCOCC4)c(F)cc3c2=O)n1` [Compound 171, 6-fluoro-7-morpholino-3-(3-(2-phenylpropan-2-yl)-1,2,4-oxadiazol-5-yl)-1-(4-(trifluoromethyl)benzyl)quinolin-4(1H)-one] and `O=c1c(-c2nc(Cc3ccc(F)cc3)no2)cn(Cc2ccc(C(F)(F)F)cc2)c2cc(N3CCOCC3)c(F)cc12` [Compound 172, 6-fluoro-3-(3-(4-fluorobenzyl)-1,2,4-oxadiazol-5-yl)-7-morpholino-1-(4-(trifluoromethyl)benzyl)quinolin-4(1H)-one] cannot be ordered by IC50: > 10 µM for the first, > 10 µM for the second.

`O=c1c(-c2ncc(Cc3ccccc3)o2)cn(Cc2ccc(Cl)cc2)c2ccc(OCCCN3CCOCC3)cc12` [Compound 176, 3-(5-benzyl-oxazol-2-yl)-1-(4-chloro-benzyl)-6-(3-morpholin-4-yl-propoxy)-1H-quinolin-4-one] and `O=c1c(-c2noc(Cc3ccc(Cl)cc3)n2)cn(Cc2ccc(C(F)(F)F)cc2F)c2c1CNCC2` [Compound 178, 3-[5-(4-chloro-benzyl)-[1,2,4]oxadiazol-3-yl]-1-(2-fluoro-4-trifluoromethyl-benzyl)-5,6,7,8-tetrahydro-1H-[1,6]naphthyridin-4-one] cannot be ordered by IC50: < 10 µM for the first, < 10 µM for the second.

Source: US20070287699A1, “ANTIVIRAL AGENTS” (ViroBay, Inc., priority 2006, published 2007)
